Assay results taken from US9226912B2, “Acetyltanshinone IIA (ATA) as anticancer agent” (Nanyang Technological University, priority 2011, dated 2016).
“Also recorded” adds a separate entry of the source.

Assays:
MCF-10A = assay: IC50 and LC50 of ATA at 48 h; type: cell-based; conditions: Homo sapiens, MCF-10A non-cancer breast cell line
[1] = IC50 and LC50 of ATA at 48 h; type: cell-based; conditions: human, MCF-10A cells (non-cancer breast cell line), MCF-10A non-cancer breast cell line
[2] = Solubility relative to TIIA; type: physicochemical; conditions: in both DMSO and PBS
Experimental: A mixture of TIIA (2.04 g), sodium acetate (2.5 g), acetic anhydride (18 ml), and anhydrous zinc powder (6 g) is stirred in a boiling water bath for 3 h, then immediately filtrated by using a vacuum filtration system to remove the insoluble residues. The filtrate is diluted with water (300 ml), and then heated to boil. The resulting solution is cooled at room temperature and filtered to give a solid product (1.80 g). The product can be further crystallized using 95% ethanol to produce the final product (1.51 g) acetyltanshinone IIA (ATA) with chemical designation of 1,6,6-trimethyl-8,9-dihydro-10,11-diacetoxyl-7H-naphtho[1,2-g][1]benzofuran (FIG. 2). ATA appeared in white color, which is totally different from its original red color.

[3] = tested on: Four types of cancer cells; assay: ATA versus TIIA, cell viability by MTT assay after 48 h; type: cell-based; conditions: 10 μM or 20 μM
Experimental: Four types of cancer cells were treated with ATA or TIIA at either 10 μM or 20 μM and the cell viability was measured by MTT assay after 48 h of compound addition. * p<0.01.

Caco2 = assay: IC50 of ATA at 72 h; type: cell-based; conditions: Homo sapiens, Caco-2, Caco2 colorectal adenocarcinoma
Experimental: (§1) The cytotoxcitiy of ATA was assessed in cancer cell lines and normal cells. In order to do so the IC50 of ATA at 72 h in multiple cancer cell lines or normal cell lines including muscle and fibroblast cells was evaluated.

HCT 116 = assay: IC50 of ATA at 72 h; type: cell-based; conditions: Homo sapiens, HCT 116 colorectal adenocarcinoma
Experimental: as §1

SK-N-SH = assay: IC50 of ATA at 72 h; type: cell-based; conditions: Homo sapiens, SK-N-SH neuroblastoma
Experimental: as §1

HCT 15 = assay: IC50 of ATA at 72 h; type: cell-based; conditions: Homo sapiens, HCT 15 colorectal adenocarcinoma
Experimental: as §1

HeLa [4] = assay: IC50 of ATA at 72 h; type: cell-based; conditions: Homo sapiens, HeLa cervical cancer cells
Experimental: as §1

A549 = assay: IC50 of ATA at 72 h; type: cell-based; conditions: Homo sapiens, A549 lung cancer cells
Experimental: as §1

K-562 = assay: IC50 of ATA at 72 h; type: cell-based; conditions: Homo sapiens, K562, K-562 leukaemia cells
Experimental: as §1

HepG2 = assay: IC50 of ATA at 72 h; type: cell-based; conditions: Homo sapiens, HepG2 liver cancer cells
Experimental: as §1

IMR-90 (non-cancerous) = assay: IC50 of ATA at 72 h; type: cell-based; conditions: Homo sapiens, IMR-90 fibroblast (normal lung cells)
Experimental: as §1

C2C12 (non-cancerous) = assay: IC50 of ATA at 72 h; type: cell-based; conditions: Mus musculus, C2C12 myoblast (normal muscle cells)
Experimental: as §1

[5] = tested on: Bax and cytochrome c in MDA-MB-435 cells; assay: Bax translocation and cytochrome c release, cell fractionation Western blot and immunofluorescence; type: cell-based, human; conditions: 5 μM ATA, 24 h, normalized to control 1.0
Experimental: The concentration of ATA and PG were 5 μM and 20 μM, respectively. […] Scale bar=10 μm.
The value of CY/MT represents the ratio of integrated band intensity of cytosol fraction (CY) over corresponding integrated band intensity of mitochondrial fraction (MT). The ratio was normalized by the control group. Two proteins were used as internal markers to judge the quality of cell fractionation experiment: Cox IV for mitochondria and β-tubulin mainly for cytosol.
The subcellular localization changes of Bax and cytochrome c during ATA-induced apoptosis were first examined using immunofluorescence staining.
(§2) It was further tested, whether PG could prevent ROS generation after ATA treatment.

ERα in BT474 cells = target: T1, ERα in BT474 cells (Homo sapiens, UniProt P03372); assay: ERα protein level by Western blotting; type: cell-based; conditions: 6 μM ATA or 1 μM fulvestrant
T1 construct: endogenous in cells; host or cells: BT474 human breast cancer cells
Experimental: (§3) Cells were treated with 6 μM ATA or 1 μM fulvestrant for indicated times and analyzed by Western blotting.

[6] = tested on: GREB1 mRNA in MCF-7 cells; assay: Real-time PCR of GREB1 mRNA level; conditions: for GREB1 mRNA level, fold of the control: 100 pM estrogen plus 6 μM ATA, charcoal-stripped medium
Experimental: In order to do so, the mRNA level of a non-ER regulated gene GAPDH was measured and used as a reference. MCF-7 cells cultured in the charcoal-stripped medium were used as a control.

[7] = tested on: HER2 protein in BT474 cells; assay: HER2 protein level by Western blotting; type: cell-based, human; conditions: 6 μM ATA or 1 μM fulvestrant
Experimental: as §3

HeLa [8] = assay: IC50 and LC50 of ATA at 48 h; type: cell-based; conditions: Homo sapiens, HeLa cervical cancer
HL-60 = assay: IC50 and LC50 of ATA at 48 h; type: cell-based; conditions: Homo sapiens, HL-60 leukemia
SK-BR-3 = assay: IC50 and LC50 of ATA at 48 h; type: cell-based; conditions: Homo sapiens, SK-BR-3 breast cancer
ROS in MDA-MB-435 cells = assay: ROS generation and its prevention by PG; type: cell-based, human; conditions: MDA-MB-435 cells
Experimental: (A) PG prevented ATA-induced cell death. Three concentrations of PG were tested for their protective effects on ATA-induced cell death. The cell viability was measured by SRB assay. (* p<0.01). (B) PG protected ROS generation caused by ATA treatment. […] All the experiments were performed at least three times. The results presented in this figure are the average of three experiments. Error bar represents standard deviation. Scale bar=20 μm.
as §2

SiHa = assay: IC50 and LC50 of ATA at 48 h; type: cell-based; conditions: Homo sapiens, SiHa cervical cancer
T47D = assay: Growth inhibition at 72 h by MTT assay; type: cell-based; conditions: T47D (ER+)
MDA-MB-435 = assay: IC50 and LC50 of ATA at 48 h; type: cell-based; conditions: Homo sapiens, MDA-MB-435 melanoma

T1 sequence (P03372 whole entry): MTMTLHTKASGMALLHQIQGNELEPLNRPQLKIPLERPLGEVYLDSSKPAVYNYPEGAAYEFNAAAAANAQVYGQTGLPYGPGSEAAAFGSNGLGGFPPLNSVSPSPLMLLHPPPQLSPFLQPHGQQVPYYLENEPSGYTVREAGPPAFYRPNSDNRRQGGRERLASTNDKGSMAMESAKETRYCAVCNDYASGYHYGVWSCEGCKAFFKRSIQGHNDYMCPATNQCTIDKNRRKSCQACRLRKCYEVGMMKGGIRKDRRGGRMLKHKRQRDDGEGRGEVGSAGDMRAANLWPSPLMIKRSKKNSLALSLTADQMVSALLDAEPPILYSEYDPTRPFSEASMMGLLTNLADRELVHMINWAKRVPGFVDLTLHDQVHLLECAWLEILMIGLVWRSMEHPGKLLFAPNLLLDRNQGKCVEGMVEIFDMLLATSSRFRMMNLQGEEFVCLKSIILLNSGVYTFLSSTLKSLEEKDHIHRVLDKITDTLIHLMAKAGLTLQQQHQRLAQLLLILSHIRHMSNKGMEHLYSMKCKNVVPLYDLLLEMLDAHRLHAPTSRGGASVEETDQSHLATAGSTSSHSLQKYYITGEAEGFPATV

For `CC(=O)Oc1c(OC(C)=O)c2c(C)coc2c2ccc3c(c12)CCCC3(C)C` [ATA, 1,6,6-trimethyl-8,9-dihydro-10,11-diacetoxyl-7H-naphtho[1,2-g][1]benzofuran], the IC50 (MCF-10A) was 6640 nM, the CC50 at 48 h [1] was 16300 ± 4460 nM and the “higher solubility than TIIA” value [2] was 22 fold. For the same compound, the “growth inhibition effect compared with TIIA” value [3] was “stronger growth inhibition effect than TIIA”, the IC50 (Caco2) was 2500 ± 450 nM and the IC50 (HCT 116) was 2280 ± 490 nM. For the same compound, the IC50 (SK-N-SH) was 1240 ± 120 nM, the IC50 (HCT 15) was 560 ± 80 nM and the IC50 (HeLa [4]) was 690 ± 190 nM. For the same compound, the IC50 (A549) was 810 ± 130 nM, the IC50 (K-562) was 1690 ± 340 nM and the IC50 (HepG2) was 4270 ± 730 nM. The IC50 (IMR-90 (non-cancerous)) was 15500 ± 710 nM, the IC50 (C2C12 (non-cancerous)) was 10200 ± 1440 nM and the “ratio of Bax level in the cytosol to that in the mitochondria” value [5] was under 0.1. The “ratio of cytochrome c level in cytosol to that in mitochondria” value [5] was 7.5, the “level of ERα” value (ERα in BT474 cells) was “reduced the level of ERα and HER2” and the “GREB1 mRNA level, fold of the control” value ([6]; 4 h) was 6.4 fold. For the same compound, the “GREB1 mRNA level, fold of the control” value ([6]; 12 h) was 7.9 fold, the “GREB1 level of the control” value ([6]; 100 pM estrogen plus 6 μM compound, 24 h, normal medium) was “about 50%” and the “level of HER2 protein” value [7] was “can reduce the level of HER2 protein; also recorded: reduced the level of ERα and HER2”. The CC50 (HeLa [8]) was 10900 ± 1450 nM, the IC50 (HeLa [8]) was 1390 ± 130 nM and the CC50 (HL-60) was 8530 ± 200 nM. For the same compound, the IC50 (HL-60) was 2980 ± 370 nM, the IC50 (SK-BR-3) was 290 nM and the CC50 (SK-BR-3; kill 50% of the cells) was 5100 ± 1920 nM. For the same compound, the “time of maximum ROS level after ATA addition” value (ROS in MDA-MB-435 cells) was 2 h, the CC50 (SiHa) was 12300 ± 680 nM and the IC50 (SiHa) was 1960 ± 490 nM. The IC50 (T47D; Homo sapiens) was 1400 ± 200 nM, the “IC50 ratio of tamoxifen/ATA” value (T47D) was 6.7 and the CC50 (MDA-MB-435) was 2740 ± 510 nM. The IC50 (MDA-MB-435) was 550 ± 150 nM.
